The values below come from patent publication US11807648B2, “Process for preparing substituted polycyclic pyridone derivative and crystal thereof” (priority 2016, dated 2023).

The target of series [1] is T1, CYP3A4 (Homo sapiens, UniProt P08684). The format is in vitro ADME. The arrangement: host or cells: Escherichia coli. The conditions noted are these: pre-reaction time 0 or 30 minutes, 7-BFC substrate. On the procedure: Test Example 6: CYP3A4 Fluorescent MBI Test
The CYP3A4 fluorescent MBI test investigates enhancement of CYP3A4 inhibition by Compound (V) in metabolism reaction. 7-benzyloxytrifluoromethylcoumarin (7-BFC) was debenzylated by CYP3A4 enzyme (enzyme expressed in Escherichia coli) and a metabolite, 7-hydroxytrifluoromethylcoumarin (7-HFC) which emits fluorescent light was produced. The test was performed using 7-HFC production reaction as an index.
The reaction conditions were as follows: Substrate, 5.6 μmol/L 7-BFC; pre-reaction time, 0 or 30 minutes; reaction time, 15 minutes; reaction temperature, 25° C. […]
A pre-reaction solution containing the enzyme and Compound (V) in K-Pi buffer (pH 7.4) as described above was added to a 96-well plate. […] For each of the plates on which the reaction was performed, the fluorescent value of the metabolite 7-HFC was measured by fluorescent plate reader (Ex=420 nm, Em=535 nm).
As a control for remaining activity, DMSO (i.e., the solvent for dissolving Compound (V)) was added solely to the reaction system, and the remaining activity (%) was calculated for each concentration of Compound (V) in the solution. The IC50 value was calculated by reverse-presumption by logistic model using the concentration and the inhibition rate. […]

Another series concerns the target T2, CYP2C9 (Homo sapiens, UniProt P11712).
T2 construct: Using commercially available pooled human hepatic microsome; from tissue
In words: biochemical. The format is in vitro ADME. The conditions noted are these: pooled human hepatic microsome 0.2 mg protein/mL, 15 minutes, 37° C. The text has this:
(§1) Test Example 3: CYP Inhibition Test
(§2) Using commercially available pooled human hepatic microsome and employing, as a reference, typical substrate metabolism reactions of human main five CYP enzyme forms (CYP1A2, 2C9, 2C19, 2D6, 3A4), i.e., 7-ethoxyresorufin O-deethylation (CYP1A2), tolbutamide methyl-hydroxylation (CYP2C9), mephenytoin 4′-hydroxylation (CYP2C19), dextromethorphan O-demethylation (CYP2D6), and terfenedine hydroxylation (CYP3A4), the degree of inhibition by Compound (V) was assessed for each metabolite production.
(§3) The reaction conditions were as follows:
(§4) Substrate: 0.5 μmol/L ethoxyresorufin (CYP1A2), 100 μmol/L tolbutamide (CYP2C9), 50 μmol/L S-mephenytoin (CYP2C19), 5 μmol/L dextromethorphan (CYP2D6), 1 μmol/L terfenedine (CYP3A4); Reaction time: 15 minutes; Reaction temperature: 37° C.; Enzyme: pooled human hepatic microsome 0.2 mg protein/mL; Concentration of Compound (V): 1, 5, 10, 20 μmol/L (four points).
(§5) For each of the five substances, a reaction solution was prepared on a 96-well plate by adding the substrate, human hepatic microsome and Compound (V) to 50 mmol/L Hepes buffer in the proportion as described above. NADPH, which is a cofactor, was added to initiate the metabolism reaction. After incubating at 37° C. for 15 minutes, a methanol/acetonitrile solution (1/1 (v/v)) was added to quench the reaction. After centrifugation at 3000 rpm for minutes, resorufin (CYP1A2 metabolite) in the supernatant was measured by fluorescent multi-label counter, and hydroxytolbutamide (CYP2C9 metabolite), 4′-hydroxymephenytoin (CYP2C19 metabolite), dextrorphan (CYP2D6 metabolite) and terfenadine alcohol (CYP3A4 metabolite) were measured by LC/MS/MS.
(§6) As a control, DMSO (the solvent for dissolving Compound (V)) was added solely to the reaction system. The remaining activity (%) of Compound (V), relative to the control (100%), was calculated at each concentration of the compound, and the IC50 was calculated by reverse presumption by a logistic model using the concentration and the inhibition rate.

The target in a further series is T3, CYP2C19 (Homo sapiens, UniProt P33261).
T3 construct: Using commercially available pooled human hepatic microsome; from tissue
Nature of the series: biochemical. Format: in vitro ADME. To be noted: pooled human hepatic microsome 0.2 mg protein/mL, 15 minutes, 37° C.
Description: as §1, §2, §3, §4, §5, §6

Another series addresses T4, CYP1A2 (Homo sapiens, UniProt P05177).
T4 construct: Using commercially available pooled human hepatic microsome; from tissue
T4 sequence (P05177 1-516): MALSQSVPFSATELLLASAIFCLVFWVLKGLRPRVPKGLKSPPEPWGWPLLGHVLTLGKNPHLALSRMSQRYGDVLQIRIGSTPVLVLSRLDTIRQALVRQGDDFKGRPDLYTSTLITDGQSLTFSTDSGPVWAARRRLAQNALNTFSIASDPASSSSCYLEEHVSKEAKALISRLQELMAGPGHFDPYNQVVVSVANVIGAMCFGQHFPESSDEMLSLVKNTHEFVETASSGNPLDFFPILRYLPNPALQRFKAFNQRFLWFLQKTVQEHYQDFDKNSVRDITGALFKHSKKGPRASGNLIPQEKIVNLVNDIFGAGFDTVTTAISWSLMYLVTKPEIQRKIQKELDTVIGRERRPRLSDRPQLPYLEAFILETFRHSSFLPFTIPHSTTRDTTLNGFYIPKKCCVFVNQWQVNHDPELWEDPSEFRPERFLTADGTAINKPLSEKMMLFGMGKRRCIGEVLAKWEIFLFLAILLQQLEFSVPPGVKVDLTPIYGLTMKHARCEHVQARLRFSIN
Nature of the series: biochemical. Format: in vitro ADME. The conditions noted are these: pooled human hepatic microsome 0.2 mg protein/mL, 15 minutes, 37° C.
Description: as §1, §2, §3, §4, §5, §6

The next series has as its target T5, CYP2D6 (Homo sapiens, UniProt P10635).
T5 construct: Using commercially available pooled human hepatic microsome; from tissue
In words: biochemical. The format is in vitro ADME. The conditions noted are these: pooled human hepatic microsome 0.2 mg protein/mL, 15 minutes, 37° C.
Description: as §1, §2, §3, §4, §5, §6

The format of series [2] is in vitro ADME. The conditions noted are these: 2 μmol/L of the compound, human liver microsomes 0.5 mg protein/mL, 30 minutes, 37° C., NADPH. On the procedure:
Test Example 5: Metabolism Stability Test
Compound (V) was reacted with commercially available pooled human hepatic microsomes for a certain time. The remaining rate of the compound was calculated by comparing the reacted sample and the unreacted sample to assess the degree of metabolism of Compound (V) in liver.
The compound was reacted in 0.2 mL of buffer (50 mmol/L Tris-HCl pH 7.4, 150 mmol/L potassium chloride, 10 mmol/L magnesium chloride) containing 0.5 mg protein/mL of human liver microsomes at 37° C. for 0 minute or 30 minutes in the presence of 1 mmol/L NADPH (oxidative reaction). After the reaction, 50 μL of the reaction solution was added to 100 μL of methanol/acetonitrile=1/1 (v/v), mixed and centrifuged at 3000 rpm for 15 minutes. The amount of Compound (V) in the supernatant was measured by LC/MS/MS, and the remaining rate of the compound after the reaction was calculated, with the amount of the compound at 0 minute of reaction time being 100%. The hydrolysis reaction was carried out in the absence of NADPH, and the glucuronidation reaction was carried out in the presence of 5 mmol/L UDP-glucuronic acid instead of NADPH, and the subsequent procedure was carried out in the same manner as described.
A general note: Microsomes from liver hold many membrane-bound enzymes, among them those of drug oxidation.

In series [3] the test system is red blood cell suspension prepared from ovine defibrinated blood of sheep. In words: Photohemolysis test. The format is cell-based. To be noted: UVA and UVB irradiation 10 J/cm^2, 290-400 nm. On the procedure:
Test Example 12: Photohemolysis Test
Compound (V) was dissolved at a predetermined concentration and mixed on a microplate with a […] (2.5 v/v %) prepared from ovine defibrinated blood of sheep. Light irradiation in the UVA and UVB wavelength regions (10 J/cm^2, 290-400 nm) was performed using ultraviolet fluorescent lamp (GL20SE lamp, Sankyo Denki and FL20S-BLB lamp, Panasonic). The mixed solution after the irradiation was collected and centrifuged. After centrifugation, the supernatant was collected and transferred to a microplate, and the absorbance (at 540 or 630 nm) of the supernatant was measured. The absorbance at 540 and 630 nm were used as an index of biological membrane damage (% light hemolysis) and lipid membrane peroxidation (methemoglobin production), respectively. (−): less than 10% for photohemolysis rate and less than 0.05 for the change in absorbance at 630 nm; (+): 10% or more for photohemolysis rate and 0.05 or more for the change in absorbance at 630 nm.

The target in series [4] is T1, CYP3A4. In words: biochemical. Format: in vitro ADME. Details: Using commercially available pooled human hepatic microsome; from tissue. The conditions noted are these: pooled human hepatic microsome 0.2 mg protein/mL, 15 minutes, 37° C.
Description: as §1, §2
The reaction conditions were as follows: […]
For each of the five substances, a reaction solution was prepared on a 96-well plate by adding the substrate, human hepatic microsome and Compound (V) to 50 mmol/L Hepes buffer in the proportion as described above. […] After centrifugation at 3000 rpm for minutes, resorufin (CYP1A2 metabolite) in the supernatant was measured by fluorescent multi-label counter, and hydroxytolbutamide (CYP2C9 metabolite), 4′-hydroxymephenytoin (CYP2C19 metabolite), dextrorphan (CYP2D6 metabolite) and terfenadine alcohol (CYP3A4 metabolite) were measured by LC/MS/MS. […]

Series [5] in a line: Plasma concentration after oral administration of Compound (VI) to rats. The format is in vivo. The conditions noted are these: after oral administration of Compound (VI) to rats under non-fasting condition. An excerpt:
FIG. 7 is a time-course of the concentration in plasma of the compound of formula (V) after oral administration of the compound of formula (VI), which is a prodrug of the compound of formula (V), to rats under non-fasting condition.
FIG. 8 is a time-course of the concentration in plasma of the compound of formula (VI) after oral administration of the compound of formula (VI), which is a prodrug of the compound of formula (V), to rats under non-fasting condition.
FIG. 7 and FIG. 8 show the time-course of the concentration in plasma of Compound (V) and its prodrug Compound (VI) after oral administration of Compound (VI) to rats under non-fasting condition.

A value given as a limit tells only on which side of the number the result lay.

T1 sequence (P08684 whole entry): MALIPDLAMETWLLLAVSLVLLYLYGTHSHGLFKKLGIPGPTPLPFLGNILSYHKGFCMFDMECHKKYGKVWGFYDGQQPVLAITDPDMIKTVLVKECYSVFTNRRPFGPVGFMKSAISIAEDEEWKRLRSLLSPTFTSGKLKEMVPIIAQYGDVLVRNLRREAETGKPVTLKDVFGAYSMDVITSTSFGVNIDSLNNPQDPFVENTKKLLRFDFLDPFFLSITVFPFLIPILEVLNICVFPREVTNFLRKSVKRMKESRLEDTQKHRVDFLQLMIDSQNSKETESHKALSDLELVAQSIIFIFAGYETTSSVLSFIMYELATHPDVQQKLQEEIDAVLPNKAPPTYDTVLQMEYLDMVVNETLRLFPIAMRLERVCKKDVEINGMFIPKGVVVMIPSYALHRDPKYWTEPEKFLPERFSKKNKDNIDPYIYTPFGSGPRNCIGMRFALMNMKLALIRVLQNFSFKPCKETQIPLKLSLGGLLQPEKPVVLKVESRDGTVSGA
T3 sequence (P33261 whole entry): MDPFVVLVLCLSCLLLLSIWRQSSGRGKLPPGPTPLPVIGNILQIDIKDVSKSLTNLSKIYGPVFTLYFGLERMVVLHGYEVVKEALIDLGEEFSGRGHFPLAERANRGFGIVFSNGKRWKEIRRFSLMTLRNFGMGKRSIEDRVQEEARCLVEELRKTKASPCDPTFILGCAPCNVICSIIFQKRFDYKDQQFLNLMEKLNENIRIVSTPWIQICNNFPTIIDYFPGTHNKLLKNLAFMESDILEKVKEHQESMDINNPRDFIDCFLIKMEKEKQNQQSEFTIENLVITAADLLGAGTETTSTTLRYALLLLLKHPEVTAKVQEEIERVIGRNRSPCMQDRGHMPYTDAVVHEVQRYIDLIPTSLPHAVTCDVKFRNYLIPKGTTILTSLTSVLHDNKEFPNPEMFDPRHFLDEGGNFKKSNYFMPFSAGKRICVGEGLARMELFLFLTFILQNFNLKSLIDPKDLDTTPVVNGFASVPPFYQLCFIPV
T5 sequence (P10635 whole entry): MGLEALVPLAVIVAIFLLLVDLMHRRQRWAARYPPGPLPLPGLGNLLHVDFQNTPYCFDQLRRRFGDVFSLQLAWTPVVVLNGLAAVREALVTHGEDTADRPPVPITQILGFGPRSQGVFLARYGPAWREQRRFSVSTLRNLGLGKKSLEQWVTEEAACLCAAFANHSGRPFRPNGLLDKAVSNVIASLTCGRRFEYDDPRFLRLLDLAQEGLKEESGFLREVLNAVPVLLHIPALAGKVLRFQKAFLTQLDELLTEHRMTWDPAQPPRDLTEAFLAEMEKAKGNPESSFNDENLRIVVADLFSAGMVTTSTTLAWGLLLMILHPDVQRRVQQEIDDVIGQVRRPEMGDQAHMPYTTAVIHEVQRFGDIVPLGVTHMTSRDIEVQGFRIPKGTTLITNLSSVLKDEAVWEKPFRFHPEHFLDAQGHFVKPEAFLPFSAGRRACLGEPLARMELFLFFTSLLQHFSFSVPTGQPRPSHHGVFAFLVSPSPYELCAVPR
T2 sequence (P11712 whole entry): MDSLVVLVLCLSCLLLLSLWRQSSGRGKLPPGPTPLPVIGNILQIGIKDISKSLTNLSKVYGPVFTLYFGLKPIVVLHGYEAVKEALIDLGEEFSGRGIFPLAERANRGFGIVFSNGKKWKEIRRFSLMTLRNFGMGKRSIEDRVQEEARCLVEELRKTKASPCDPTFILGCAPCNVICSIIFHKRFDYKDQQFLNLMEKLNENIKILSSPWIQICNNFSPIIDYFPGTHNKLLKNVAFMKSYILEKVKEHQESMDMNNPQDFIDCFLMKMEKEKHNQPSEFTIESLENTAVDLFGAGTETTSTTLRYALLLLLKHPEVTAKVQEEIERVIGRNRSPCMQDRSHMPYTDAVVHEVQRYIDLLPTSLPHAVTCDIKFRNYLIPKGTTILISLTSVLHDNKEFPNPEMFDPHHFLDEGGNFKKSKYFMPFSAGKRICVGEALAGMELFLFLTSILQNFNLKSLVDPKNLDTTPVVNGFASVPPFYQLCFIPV

In the case of `O=C1c2c(O)c(=O)ccn2N([C@@H]2c3ccccc3SCc3c2ccc(F)c3F)[C@@H]2COCCN12` [Compound (V)], the “CYP3A4 fluorescent MBI (difference in IC50 values with/without pre-incubation)” value at CYP3A4 [1] is given as “(−) (a difference of 3 μM or less was defined as (−))”. In addition, the concentration for half-maximal inhibition (IC50) against CYP2C9, on CYP2C19, against CYP1A2, at CYP2D6 and at CYP3A4 [4] was > 20 µM each time. In [2], the “remaining rate in oxidative metabolism” value was determined as 90.1%. Besides, the photohemolysis result in series [3] is “(−) ((−): less than 10% for photohemolysis rate and less than 0.05 for the change in absorbance at 630 nm)”.

With `COC(=O)OCOc1c2n(ccc1=O)N([C@@H]1c3ccccc3SCc3c1ccc(F)c3F)[C@@H]1COCCN1C2=O` [Compound (VI)], the “concentration in plasma sample” value in series [5] is on record as “below the limit of quantification”.
